Experimental data published in ChEMBL document CHEMBL1140179, “Rhabdastrellins A-F, isomalabaricane triterpenes from the marine sponge Rhabdastrella aff. distincta” (J Nat Prod, 2008).
Values after ≈ are worked out from the molar mass of the structure shown.

These molecules were tested on HL-60 (assay: Cytotoxicity against human HL60 cells).
Assay type: functional, cell-based
`C/C(C(=O)/C=C/C(C)=C/C=C/C(C)(C)O)=C1/C(=O)C[C@H]2[C@@]3(C)CC[C@H](O)[C@](C)(CO)[C@@H]3CC[C@]12C` [RHABDASTRELLIN D] showed an IC50 of over 10 µg/mL. With `C\C(=C/C=C/C(C)=C1/C(=O)C[C@H]2[C@@]3(C)CC[C@H](O)[C@](C)(CO)[C@@H]3CC[C@]12C)c1ccc(C)c(=O)o1` [RHABDASTRELLIN A] the IC50 was 4.2 µg/mL (≈ 8.74 µM). For `COC(=O)/C(C)=C/C=C/C(C)=C/C=C/C(C)=C1\C(=O)C[C@H]2[C@@]3(C)CC[C@H](O)C(C)(C)[C@@H]3CC[C@]12C` [RHABDASTRELLIN F], the IC50 was over 10 µg/mL. `COC(=O)/C(C)=C/C=C/C(C)=C/C=C/C(C)=C1/C(=O)C[C@H]2[C@@]3(C)CC[C@H](O)C(C)(C)[C@@H]3CC[C@]12C` [RHABDASTRELLIN E] gave an IC50 of over 10 µg/mL. In the case of `CC(/C=C/C(O)C(C)(C)O)=C\C=C\C(C)=C1\C(=O)C[C@H]2[C@@]3(C)CC[C@H](O)[C@](C)(CO)[C@@H]3CC[C@]12C` (stereo partly specified) [RHABDASTRELLIN C], the IC50 is reported as over 10 µg/mL. Work on `CC(/C=C/C=C(C)/C=C/C(O)C(C)(C)O)=C1/C(=O)C[C@H]2[C@@]3(C)CC[C@H](O)[C@](C)(CO)[C@@H]3CC[C@]12C` (stereo partly specified) [RHABDASTRELLIN B] yielded an IC50 of over 10 µg/mL.
